Assay results reported in the supplement of paper PMC13380429.

Legend:
Settings in all cases: 72 h
U2OS [1] = assay: relative viability EC50 (midpoint between 100% and the lowest measured viability); higher = less toxic
Vero E6 [2] = assay: as above
Caco-2 [3] = assay: as above
HepG2 [4] = assay: as above
Calu-3 [5] = assay: as above
U2OS [6] = assay: cell viability relative to DMSO; higher = less toxic
Vero E6 [7] = assay: as above
Caco-2 [8] = assay: as above
HepG2 [9] = assay: as above
Calu-3 [10] = assay: as above
U2OS [11] = assay: drug sensitivity score (DSS) for viability; higher = more toxic; extreme values may be limits of the assay
Vero E6 [12] = assay: as above
Caco-2 [13] = assay: as above
HepG2 [14] = assay: as above
Calu-3 [15] = assay: as above

Structure (SMILES): c1ccc2c(-c3cnn4cc(-c5ccc(N6CCNCC6)cc5)cnc34)ccnc2c1
- relative viability EC50 (U2OS [1]): 1.75 µM
- relative viability EC50 (Vero E6 [2]): 1.44 µM
- relative viability EC50 (Caco-2 [3]): 1.94 µM
- relative viability EC50 (HepG2 [4]): 1.57 µM
- relative viability EC50 (Calu-3 [5]): 2.69 µM
- cell viability (U2OS [6]; 1 nM): 95.1%
- cell viability (U2OS [6]; 10 nM): 94.2%
- cell viability (U2OS [6]; 100 nM): 92.1%
- cell viability (U2OS [6]; 1000 nM): 80.4%
- cell viability (U2OS [6]; 10000 nM): -0.1%
- cell viability (Vero E6 [7]; 1 nM): 90%
- cell viability (Vero E6 [7]; 10 nM): 102%
- cell viability (Vero E6 [7]; 100 nM): 98.1%
- cell viability (Vero E6 [7]; 1000 nM): 71.5%
- cell viability (Vero E6 [7]; 10000 nM): -0.1%
- cell viability (Caco-2 [8]; 1 nM): 107%
- cell viability (Caco-2 [8]; 10 nM): 87.7%
- cell viability (Caco-2 [8]; 100 nM): 120%
- cell viability (Caco-2 [8]; 1000 nM): 85.9%
- cell viability (Caco-2 [8]; 10000 nM): 11.4%
- cell viability (HepG2 [9]; 1 nM): 99.3%
- cell viability (HepG2 [9]; 10 nM): 111%
- cell viability (HepG2 [9]; 100 nM): 94.5%
- cell viability (HepG2 [9]; 1000 nM): 75.7%
- cell viability (HepG2 [9]; 10000 nM): -0.1%
- cell viability (Calu-3 [10]; 1 nM): 95.8%
- cell viability (Calu-3 [10]; 10 nM): 98.6%
- cell viability (Calu-3 [10]; 100 nM): 112%
- cell viability (Calu-3 [10]; 1000 nM): 93.9%
- cell viability (Calu-3 [10]; 10000 nM): 0.4%
- drug sensitivity score (U2OS [11]): 8.7
- drug sensitivity score (Vero E6 [12]): 9.7
- drug sensitivity score (Caco-2 [13]): 7.2
- drug sensitivity score (HepG2 [14]): 9.3
- drug sensitivity score (Calu-3 [15]): 6.4

Structure (SMILES): CC(C)[C@@H](CS(=O)(=O)C(C)C)N1C(=O)[C@@](C)(CC(=O)O)C[C@H](c2cccc(Cl)c2)[C@H]1c1ccc(Cl)cc1 [AMG-232]
- relative viability EC50 (Vero E6 [2]): 0.568 µM
- relative viability EC50 (Caco-2 [3]): > 10 µM
- relative viability EC50 (HepG2 [4]): 0.266 µM
- relative viability EC50 (Calu-3 [5]): > 10 µM
- cell viability (U2OS [6]; 1 nM): 98.5%
- cell viability (U2OS [6]; 10 nM): 95.5%
- cell viability (U2OS [6]; 100 nM): 97.4%
- cell viability (U2OS [6]; 1000 nM): 71.2%
- cell viability (U2OS [6]; 10000 nM): 65.8%
- cell viability (Vero E6 [7]; 1 nM): 96.8%
- cell viability (Vero E6 [7]; 10 nM): 99.1%
- cell viability (Vero E6 [7]; 100 nM): 98.4%
- cell viability (Vero E6 [7]; 1000 nM): 58.1%
- cell viability (Vero E6 [7]; 10000 nM): 44.6%
- cell viability (Caco-2 [8]; 1 nM): 99.6%
- cell viability (Caco-2 [8]; 10 nM): 97.7%
- cell viability (Caco-2 [8]; 100 nM): 94.2%
- cell viability (Caco-2 [8]; 1000 nM): 91.3%
- cell viability (Caco-2 [8]; 10000 nM): 82.9%
- cell viability (HepG2 [9]; 1 nM): 102%
- cell viability (HepG2 [9]; 10 nM): 96%
- cell viability (HepG2 [9]; 100 nM): 85.9%
- cell viability (HepG2 [9]; 1000 nM): 33.5%
- cell viability (HepG2 [9]; 10000 nM): 24.4%
- cell viability (Calu-3 [10]; 1 nM): 99.9%
- cell viability (Calu-3 [10]; 10 nM): 92.4%
- cell viability (Calu-3 [10]; 100 nM): 93.1%
- cell viability (Calu-3 [10]; 1000 nM): 96.7%
- cell viability (Calu-3 [10]; 10000 nM): 93.8%
- drug sensitivity score (U2OS [11]): 5.2
- drug sensitivity score (Vero E6 [12]): 8.1
- drug sensitivity score (Caco-2 [13]): 0.7
- drug sensitivity score (HepG2 [14]): 14
- drug sensitivity score (Calu-3 [15]): 0

Structure (SMILES): O=C(O)CCCCC(CCSCc1ccccc1)SCc1ccccc1 (stereo not given) [CPI-613]
- relative viability EC50 (U2OS [1]): > 10 µM
- relative viability EC50 (Vero E6 [2]): > 10 µM
- relative viability EC50 (HepG2 [4]): > 10 µM
- relative viability EC50 (Calu-3 [5]): > 10 µM
- cell viability (U2OS [6]; 1 nM): 100%
- cell viability (U2OS [6]; 10 nM): 96.7%
- cell viability (U2OS [6]; 100 nM): 95.5%
- cell viability (U2OS [6]; 1000 nM): 96.4%
- cell viability (U2OS [6]; 10000 nM): 112%
- cell viability (Vero E6 [7]; 1 nM): 98.7%
- cell viability (Vero E6 [7]; 10 nM): 94.8%
- cell viability (Vero E6 [7]; 100 nM): 97.8%
- cell viability (Vero E6 [7]; 1000 nM): 95.7%
- cell viability (Vero E6 [7]; 10000 nM): 100%
- cell viability (HepG2 [9]; 1 nM): 97.5%
- cell viability (HepG2 [9]; 10 nM): 102%
- cell viability (HepG2 [9]; 100 nM): 97.2%
- cell viability (HepG2 [9]; 1000 nM): 100%
- cell viability (HepG2 [9]; 10000 nM): 104%
- cell viability (Calu-3 [10]; 1 nM): 103%
- cell viability (Calu-3 [10]; 10 nM): 104%
- cell viability (Calu-3 [10]; 100 nM): 97.6%
- cell viability (Calu-3 [10]; 1000 nM): 106%
- cell viability (Calu-3 [10]; 10000 nM): 101%
- drug sensitivity score (U2OS [11]): 0
- drug sensitivity score (Vero E6 [12]): 0
- drug sensitivity score (HepG2 [14]): 0
- drug sensitivity score (Calu-3 [15]): 0

Structure (SMILES): CCC[C@@H](NC(=O)N1C(=O)C(CC)(CC)[C@@H]1Oc1ccc(C(=O)N2CCN(C)CC2)cc1)c1ccc2c(c1)OCO2 [DMP-777]
- relative viability EC50 (U2OS [1]): > 10 µM
- relative viability EC50 (Vero E6 [2]): > 10 µM
- relative viability EC50 (HepG2 [4]): > 10 µM
- relative viability EC50 (Calu-3 [5]): > 10 µM
- cell viability (U2OS [6]; 1 nM): 93.7%
- cell viability (U2OS [6]; 10 nM): 103%
- cell viability (U2OS [6]; 100 nM): 98.5%
- cell viability (U2OS [6]; 1000 nM): 96.7%
- cell viability (U2OS [6]; 10000 nM): 88%
- cell viability (Vero E6 [7]; 1 nM): 94.8%
- cell viability (Vero E6 [7]; 10 nM): 95.5%
- cell viability (Vero E6 [7]; 100 nM): 93.4%
- cell viability (Vero E6 [7]; 1000 nM): 93.7%
- cell viability (Vero E6 [7]; 10000 nM): 96.8%
- cell viability (Caco-2 [8]; 1 nM): 103%
- cell viability (Caco-2 [8]; 10 nM): 95%
- cell viability (Caco-2 [8]; 100 nM): 99.6%
- cell viability (Caco-2 [8]; 1000 nM): 105%
- cell viability (Caco-2 [8]; 10000 nM): 63.3%
- cell viability (HepG2 [9]; 1 nM): 95.3%
- cell viability (HepG2 [9]; 10 nM): 97.1%
- cell viability (HepG2 [9]; 100 nM): 102%
- cell viability (HepG2 [9]; 1000 nM): 90.8%
- cell viability (HepG2 [9]; 10000 nM): 93%
- cell viability (Calu-3 [10]; 1 nM): 105%
- cell viability (Calu-3 [10]; 10 nM): 110%
- cell viability (Calu-3 [10]; 100 nM): 105%
- cell viability (Calu-3 [10]; 1000 nM): 95.4%
- cell viability (Calu-3 [10]; 10000 nM): 94.1%
- drug sensitivity score (U2OS [11]): 0.1
- drug sensitivity score (Vero E6 [12]): 0
- drug sensitivity score (Caco-2 [13]): 1.4
- drug sensitivity score (HepG2 [14]): 0
- drug sensitivity score (Calu-3 [15]): 0

Structure (SMILES): CN(Cc1ccccc1)C(=O)[C@H](Cc1ccc2ccccc2c1)NC(=O)[C@@H]1C[C@@H](O)CN1C(=O)c1cn(C)c2ccccc12 [FK-888]
- relative viability EC50 (U2OS [1]): > 10 µM
- relative viability EC50 (Vero E6 [2]): > 10 µM
- relative viability EC50 (HepG2 [4]): > 10 µM
- relative viability EC50 (Calu-3 [5]): > 10 µM
- cell viability (U2OS [6]; 1 nM): 103%
- cell viability (U2OS [6]; 10 nM): 98.7%
- cell viability (U2OS [6]; 100 nM): 98.5%
- cell viability (U2OS [6]; 1000 nM): 103%
- cell viability (U2OS [6]; 10000 nM): 87.2%
- cell viability (Vero E6 [7]; 1 nM): 105%
- cell viability (Vero E6 [7]; 10 nM): 103%
- cell viability (Vero E6 [7]; 100 nM): 101%
- cell viability (Vero E6 [7]; 1000 nM): 95.2%
- cell viability (Vero E6 [7]; 10000 nM): 99%
- cell viability (Caco-2 [8]; 1 nM): 99.7%
- cell viability (Caco-2 [8]; 10 nM): 105%
- cell viability (Caco-2 [8]; 100 nM): 99.2%
- cell viability (Caco-2 [8]; 1000 nM): 94.7%
- cell viability (Caco-2 [8]; 10000 nM): 69.3%
- cell viability (HepG2 [9]; 1 nM): 106%
- cell viability (HepG2 [9]; 10 nM): 111%
- cell viability (HepG2 [9]; 100 nM): 106%
- cell viability (HepG2 [9]; 1000 nM): 93%
- cell viability (HepG2 [9]; 10000 nM): 82.3%
- cell viability (Calu-3 [10]; 1 nM): 99.3%
- cell viability (Calu-3 [10]; 10 nM): 94%
- cell viability (Calu-3 [10]; 100 nM): 90.6%
- cell viability (Calu-3 [10]; 1000 nM): 90.5%
- cell viability (Calu-3 [10]; 10000 nM): 86.7%
- drug sensitivity score (U2OS [11]): 0
- drug sensitivity score (Vero E6 [12]): 0
- drug sensitivity score (Caco-2 [13]): 2.2
- drug sensitivity score (HepG2 [14]): 1.1
- drug sensitivity score (Calu-3 [15]): 0.6

Structure (SMILES): COC[C@@H](NC(C)=O)C(=O)NCc1ccccc1 [Lacosamide]
- relative viability EC50 (U2OS [1]): > 10 µM
- relative viability EC50 (Vero E6 [2]): > 10 µM
- relative viability EC50 (Caco-2 [3]): > 10 µM
- relative viability EC50 (HepG2 [4]): > 10 µM
- relative viability EC50 (Calu-3 [5]): > 10 µM
- cell viability (Vero E6 [7]; 1 nM): 98.5%
- cell viability (Vero E6 [7]; 10 nM): 97.4%
- cell viability (Vero E6 [7]; 100 nM): 86%
- cell viability (Vero E6 [7]; 1000 nM): 90.6%
- cell viability (Vero E6 [7]; 10000 nM): 104%
- cell viability (Caco-2 [8]; 1 nM): 92.8%
- cell viability (Caco-2 [8]; 10 nM): 90.5%
- cell viability (Caco-2 [8]; 100 nM): 81.7%
- cell viability (Caco-2 [8]; 1000 nM): 98.8%
- cell viability (Caco-2 [8]; 10000 nM): 106%
- cell viability (HepG2 [9]; 1 nM): 98.3%
- cell viability (HepG2 [9]; 10 nM): 97.5%
- cell viability (HepG2 [9]; 100 nM): 98.3%
- cell viability (HepG2 [9]; 1000 nM): 98%
- cell viability (HepG2 [9]; 10000 nM): 96.1%
- cell viability (Calu-3 [10]; 1 nM): 99.1%
- cell viability (Calu-3 [10]; 10 nM): 99.5%
- cell viability (Calu-3 [10]; 100 nM): 90.6%
- cell viability (Calu-3 [10]; 1000 nM): 114%
- cell viability (Calu-3 [10]; 10000 nM): 110%
- drug sensitivity score (U2OS [11]): 0
- drug sensitivity score (Vero E6 [12]): 0
- drug sensitivity score (Caco-2 [13]): 0
- drug sensitivity score (HepG2 [14]): 0
- drug sensitivity score (Calu-3 [15]): 0
